Broadly, the pIC50 is the negative decadic logarithm of the IC50, by convention in mol/L.

pIC50: −log10 of the molar value.

For assay [1], the system named is RAR transcriptional activity in HL60 cells. Kind of assay: RARE-driven luciferase reporter in HL60 cells. The assay is classed as cell-based, human. Particulars: KN62 5 uM, KN93 5 uM, ATRA 1 uM, six hours. Here is the method: FIG. 1. CaM kinase isoform expression in hematopoietic cells. (A) The activity of an ATRA-responsive luciferase reporter (βRARE-tk-Luc, 25 μg) was assessed in electroporated HL60 cells six hours after treatment with the indicated concentrations of ionomycin and ATRA. (B) The activity of the luciferase reporter (βRARE-tk-Luc, 25 μg) was assessed in HL60 six hours after treatment with KN62 (5 uM), KN93 (5 uM) and ATRA (1 uM). (C) Western blots were performed utilizing the indicated antibodies. F9 (column 6) is a mouse embryonal carcinoma cell line. BaF3 (column 7) is a cultured pre-B cell line. BM cells (column 8) are kit-ligand dependent normal murine hematopoietic precursors. PT67 murine fibroblasts individually transduced with either rat CaMKIIα, human CaMKIα or human CaMKIV (column 9) together with brain lysates (column 1) serve as positive controls for the respective antibodies. (D) CaMK assays were performed on HL-60 cell lysates immunoprecipitated with the indicated antibodies.
Transient transfections and luciferase assays. Murine PT67 fibroblasts were transfected utilizing calcium phosphate precipitation. All hematopoietic cell lines were transiently transfected by electroporation as previously detailed (Johnson, B. et al., Molecular and Cellular Biology 19:3372-3382 (1999)). In the transient transfections the LXSN vector (M28248) served as the expression vector for the wild type and site-directed mutagenized CaMKII and RARα coding region cDNAs. Human cDNA homologous to the coding region of rat CaMKIINα, a CaMKII inhibitory protein, was obtained by RT-PCR from HL60 RNA and cloned into the LXSN vector. The RA-responsive luciferase reporter harbors the RARE from the RARβ2 promoter as previously detailed (Si, J., and Collins, S. J., Blood 100:4401-4409 (2002)). The PON838 plasmid, a β-galactosidase reporter driven by the β-actin promoter, was used as an internal control to determine transfection efficiency for calculating relative luciferase activity.
In general terms: In a reporter assay the amount or activity of a reporter protein is the signal.

The next assay concerns K-562 cells. Kind of assay: Differentiation of K-562 cells. In kind it is cell-based, human. From the text:
Pharmacological CaMK inhibitors trigger myeloid leukemia cell differentiation. Particularly compelling evidence for the physiological importance of the CaMKII—mediated regulation of RAR activity is our experimental observation that KN-62, a pharmacological inhibitor of the CaMKs, enhances both RAR transcriptional activity (FIG. 1B) and the differentiation of certain myeloid leukemia cell lines (FIG. 7). Acute myelogenous leukemia (AML) is a heterogenous disease, and successful therapy with RA has been generally confined to those leukemias harboring RARα chromosome translocations.
Inhibitors of CaMKII inhibit the proliferation of myeloid leukemia cell lines. To determine whether inhibiting CaMKIIγ activity might have any effect on myeloid leukemia cell proliferation/viability, we treated K562 cells with the CaMK inhibitor KN93. […] The KN93 induced inhibition of K562 cell proliferation was accompanied by a reduction in the levels of the activated (autophosphorylated) CaMKIIγ (FIG. 12A, row 1).

The subject of assay [2] is Stat3 Ser727 phosphorylation in TonB210 cells. Kind of assay: bcr-abl induced Stat3 Ser727 phosphorylation in TonB210.1 cells (Western blot). The assay is classed as cell-based. Particulars: compound added immediately prior to doxycycline, 24 hours. The procedure:
FIG. 13. Stat3 is directly phosphorylated and activated by CaMKIIγ at Ser727. (A, i). Cell lysates from the indicated human leukemia cell lines were subjected to Western blots utilizing the indicated Stat3 antibodies. ii). Cell lysates from the same primary AML samples depicted in FIG. 1B were subjected to Western blots utilizing the indicated Stat3 antibodies. B). The IL-3 dependent TonB210.1 cells were deprived of IL-3 for 24 hours. The cells were then treated with the indicated compounds immediately prior to the addition of doxycycline. After an additional 24 hours cell lysates were harvested and subjected to Western blots with the indicated Stat3 antibodies. C). K562 cells were electroporated with a luciferase reporter driven by a Stat3 response element. The indicated concentrations of KN93 and the Stat 3 inhibitor, cucurbitacin I, were added and relative luciferase activity determined on cell lysates following 48 hours of culture. D, i) K562 cell lysates were immunoprecipitated with control IgG or a Stat3 antibody. The immunoprecipitates were then subjected to Western blot analysis with the indicated antibodies. ii,) A bacterial—expressed GST-Stat3 fusion protein was incubated in vitro with CaMKIIγ that had been immunoprecipitated from HL60 cells. Western blots were then performed on the reaction mixtures utilizing the indicated Stat3 antibodies. iii,). […]

In the next assay the test system is CaMKs. To be noted: inhibitors interfere with binding of Ca++/CaM to the CaMKs; cited from earlier work.

With `CN([C@@H](Cc1ccc(OS(=O)(=O)c2cccc3cnccc23)cc1)C(=O)N1CCN(c2ccccc2)CC1)S(=O)(=O)c1cccc2cnccc12` [KN-62], the “RAR transcriptional activity (βRARE-tk-Luc reporter)” value in assay [1] was “enhance”. In addition, the “differentiation of K-562” value in the assay on K-562 cells (preliminary studies, not shown) was “does not induce”. The “bcr-abl induced Stat3 Ser727 phosphorylation” value in assay [2] is “blocked”. Further, the pIC50 with CaMKs is 6.05.

Regarding `COc1ccc(S(=O)(=O)N(CCO)c2ccccc2CN(C)C/C=C/c2ccc(Cl)cc2)cc1` [KN-93], the “RAR transcriptional activity (βRARE-tk-Luc reporter)” value in assay [1] is reported as “enhance”. Besides, the “morphologic differentiation of K562” value in the assay on K-562 cells (KN93 treated K562) is listed as “no effect”. For the same molecule, in assay [2], the “bcr-abl induced Stat3 Ser727 phosphorylation” value is given as “blocked”. Also, the pIC50 in the assay on CaMKs was 6.05.
